Results from ChEMBL document CHEMBL4689842, “EUbOPEN Chemogenomics Library wave 1” (2021).

Key:
Assay type in all cases: toxicity, cell-based
U2OS = assay: Incucyte cell viability with U2OS; settings: human, 10 µM, compound concentration 10 uM
HEK-293T = assay: Incucyte cell viability with HEK293T; settings: human, 10 µM, compound concentration 10 uM
Fibroblast = assay: Incucyte cell viability with human fibroblast; settings: 10 µM, compound concentration 10 uM
[1] = 0 h, replicate number 1, timepoint 0 hours
[2] = 6 h, replicate number 2, timepoint 6 hours
[3] = 12 h, replicate number 1, timepoint 12 hours
[4] = 18 h, replicate number 1, timepoint 18 hours
[5] = 24 h, replicate number 1, timepoint 24 hours
[6] = 24 h, replicate number 2, timepoint 24 hours
[7] = 6 h, replicate number 1, timepoint 6 hours
[8] = 12 h, replicate number 2, timepoint 12 hours
[9] = 18 h, replicate number 2, timepoint 18 hours
[10] = 0 h, replicate number 2, timepoint 0 hours
Also: filed as whole numbers so only -1 and 0 and 1 occur.

Compound	Growth Rate (U2OS; [1])	Growth Rate (U2OS; [2])	Growth Rate (U2OS; [3])	Growth Rate (U2OS; [4])	Growth Rate (U2OS; [5])	Growth Rate (HEK-293T; [1])	Growth Rate (HEK-293T; [7])	Growth Rate (HEK-293T; [3])	Growth Rate (HEK-293T; [4])	Growth Rate (HEK-293T; [5])	Growth Rate (Fibroblast; [1])	Growth Rate (Fibroblast; [7])	Growth Rate (Fibroblast; [3])	Growth Rate (Fibroblast; [4])	Growth Rate (Fibroblast; [5])	Growth Rate (U2OS; [8])	Growth Rate (U2OS; [9])	Growth Rate (HEK-293T; [2])	Growth Rate (HEK-293T; [10])	Growth Rate (HEK-293T; [6])	other results
CCCc1nc2c(C)cc(-c3nc4ccccc4n3C)cc2n1Cc1ccc(-c2ccccc2C(=O)O)cc1	0	1	1	1	1	0	0	0	0	0	0	1	0	1	0	–	–	–	–	–	Growth Rate (U2OS; [6]): 0; Growth Rate (Fibroblast; [8]): 1
CC1(C)CCC(C)(C)c2cc(C3(c4ccc(C(=O)O)cc4)OCCO3)ccc21	0	0	1	1	1	0	–	1	1	1	0	1	1	1	1	0	0	0	–	–	–
CC(C)(C)NCC(O)COc1cccc2[nH]c(=O)[nH]c12.Cl (stereo not drawn)	0	0	1	1	1	1	0	0	1	1	0	–	1	1	1	–	–	–	0	0	Growth Rate (Fibroblast; [2]): 0; Growth Rate (Fibroblast; [8]): 0
CCCCN1CCC(COC(=O)c2cc(Cl)c(N)c3c2OCCO3)CC1.Cl	1	0	1	1	1	1	0	0	0	0	0	–	–	1	1	0	0	1	0	–	Growth Rate (U2OS; [7]): 1; Growth Rate (U2OS; [6]): 0; Growth Rate (HEK-293T; [8]): 1; Growth Rate (HEK-293T; [9]): 1; Growth Rate (Fibroblast; [2]): 0; Growth Rate (Fibroblast; [8]): 0; Growth Rate (Fibroblast; [9]): 0; Growth Rate (Fibroblast; [6]): 0
N[C@H](C(=O)O)c1ccc(C(=O)O)c(C(=O)O)c1	0	1	1	1	1	0	1	1	1	1	0	1	1	1	0	–	–	–	–	–	–
Cc1c(C(=O)NC2CCCCC2)sc2nc3ccc(N)cc3n12.Cl	0	0	1	1	1	0	0	0	0	0	0	0	1	–	1	–	–	–	–	–	Growth Rate (U2OS; [7]): 1; Growth Rate (Fibroblast; [9]): 1
Br.Br.N=C(N)SCCc1c[nH]cn1	0	–	1	0	0	1	1	1	1	1	0	0	0	1	1	0	1	–	0	0	Growth Rate (U2OS; [7]): 0; Growth Rate (HEK-293T; [9]): 0; Growth Rate (Fibroblast; [9]): 0; Growth Rate (Fibroblast; [6]): 0
CSc1ccc(C(=O)N[C@@H]2CCCC[C@@H]2NC(=O)CNC(=O)c2cc(C(F)(F)F)ccc2NC(=O)NC(C)C)cc1	0	0	1	0	0	1	0	0	0	0	0	1	1	1	0	0	1	1	0	–	Growth Rate (U2OS; [6]): 1; Growth Rate (Fibroblast; [6]): 1
COc1cccc(OC)c1-c1cc(C(=O)NC2(C(=O)O)C3CC4CC(C3)CC2C4)nn1-c1ccc(C(=O)N(C)CCCN(C)C)cc1C(C)C (stereo not drawn)	–	0	1	0	0	1	0	0	1	1	0	0	0	0	0	0	–	1	0	–	Growth Rate (U2OS; [10]): 0; Growth Rate (U2OS; [6]): 1; Growth Rate (HEK-293T; [8]): 1; Growth Rate (HEK-293T; [9]): 0; Growth Rate (Fibroblast; [9]): 1; Growth Rate (Fibroblast; [6]): 1
COc1cc2c(cc1OCCCN1CCCC1)N=C(N)C21CCC1	0	–	1	1	1	0	–	–	–	–	0	–	–	1	1	–	–	–	–	–	Growth Rate (U2OS; [7]): 1; Growth Rate (Fibroblast; [8]): 0
N#Cc1c(O)nc(SCc2cccc(F)c2F)nc1C1CC1	0	–	1	1	1	0	1	1	1	1	0	1	1	1	1	–	–	–	–	0	–
Clc1cccc(-c2nnnn2Cc2cccnc2)c1Cl	–	0	0	0	1	1	1	1	1	1	0	1	0	0	0	1	1	0	0	0	Growth Rate (U2OS; [7]): 1; Growth Rate (Fibroblast; [2]): 0
N#Cc1ccc(NC(=O)Nc2ccccc2Br)c2nn[nH]c12	0	1	1	1	1	0	–	1	1	1	0	1	1	1	1	–	–	1	–	–	Growth Rate (U2OS; [10]): 1; Growth Rate (Fibroblast; [10]): 1
C[C@@H](c1cccc(CN)c1)n1cc(Cl)cc(C(N)=O)c1=N.Cl	–	0	1	1	1	0	–	–	–	1	–	1	1	1	1	0	0	–	1	–	Growth Rate (U2OS; [10]): 1; Growth Rate (U2OS; [7]): 1; Growth Rate (U2OS; [6]): 0; Growth Rate (Fibroblast; [10]): 0; Growth Rate (Fibroblast; [2]): 0; Growth Rate (Fibroblast; [8]): 0; Growth Rate (Fibroblast; [9]): 0; Growth Rate (Fibroblast; [6]): 0
CS(=O)(=O)c1cccc(NC(=O)N(Cc2ccc(C(=O)Nc3nn[nH]n3)cc2)c2ccc(C3CCCCC3)cc2)c1	0	1	–	1	1	1	1	1	1	1	0	0	0	0	1	1	–	0	0	0	Growth Rate (HEK-293T; [8]): 0; Growth Rate (HEK-293T; [9]): 0
Cc1c(OCc2cccc(-c3ccc(C(=O)O)cc3)c2)cc2c(c1C)C(=O)C(C1CCCC1)C2 (stereo not drawn)	0	–	1	1	1	0	0	0	0	0	0	0	0	0	0	–	–	–	–	1	–
